From patent US8324238B2
Read-outs that look alike come from different tables or passages of the source.

Legend:
[1] = tested on: Bone Marrow Cells of Male Mice; experiment: Micronucleus test in bone marrow cells of male mice (Example 14); conditions: 70 mg/kg intraperitoneally
Procedure: 70 mg/kg intraperitoneally administration of CPA is used as a positive control dosage (seven male ICR mice are used in each group). Twenty-four hours after single injection administration, all animals are sacrificed and the changes on the number of polychromatic erythrocyte with one or more nuclei (MNPCE) are evaluated with the changes on the total white blood cells and difference counts on the neutrophils and lymphocytes on the prepared blood. In addition, PCE/(PCE+normochromatic erythrocytes (NCE)) ratio are calculated by counting 500 erythrocytes for detecting possibility of cytotoxicity.

[2] = tested on: male ICR mice; experiment: Mouse toxicity test, intraperitoneal (Example 6)
Procedure: Male ICR mice are divided into six dose groups (five mice per group), and then fasted (no food is given except water) for 24 hours. […] A median lethal dose (LD50), an approximate lethal dose, and a maximum tolerate dose are determined after observation for 14 days.
Necropsy and histopathology findings are also performed.

[3] = Pharmacokinetic study after intravenous administration in rats (Example 10); conditions: 10 mg/kg i.v. in male SD rats
[4] = mouse, in vivo
Procedure: Seven week old male mice (ICR CD-1), 28-31 g of body weight upon receipt, are used.
Blood is sampled at 0.25, 0.5, 1, 1.5, 2, 3, 4, and 5 hours after dosing by orbital puncture.

[5] = in vivo
[6] = Solubility of various salts in distilled water, converted into free base (Example 4B); conditions: room temperature, converted into the corresponding solubilities of free base
[7] = See Korean Patent No. 10-566346; cited from earlier work
[8] = Solubility of various salt forms in various solvents at room temperature (Example 4A); assay type: physicochemical; conditions: read-out: Salt Form Solubility
[9] = tested on: gram positive bacteria, gram negative bacteria, methicillin resistant bacteria, penicillin resistant bacteria, and the known quinolone resistant strains; conditions: cited from earlier work
[10] = 24 hours after single injection
[11] = male ICR mice, intraperitoneal, 14 days observation
[12] = male, ICR, mouse, in vivo, ip, 14 days

For `O=P1(N(CCCl)CCCl)NCCCO1` (stereo not shown) [CPA, cyclophosphamide], the “MNPCEs 2000 PCEs” value [1, 10] was 71.86 ± 10.43, the “PCE(PCE + NCE) ratio” value [1, 10] was 0.36 ± 0.07 and the “Proportions among 100 leukocytes (%) Lymphocytes” value [1, 10] was 75.71 ± 9.20%. For the same compound, the “Proportions among 100 leukocytes (%) Neutrophils” value [1, 10] was 21.71 ± 9.45%, the Total leukocyte numbers [1, 10] was 2.36 ± 0.55 ×10^3 cells mm^3 and the “Change of MNPCE” value ([1]; CPA treated group) was “significant increase of MNPCE”. For the same compound, the “Loss of Locomotion” value ([1]; male ICR mice, single) was 0/7 and the Mortality ([1]; male ICR mice, single) was 0/7.

With `CON=C1CN(c2nc3c(cc2F)c(=O)c(C(=O)O)cn3C2CC2)CC12CNC2` [Formate] the Approximate lethal dose [2, 11] was 500 to 1000 mg/kg, the Median lethal dose [2, 11] was 716.24 mg/kg and the Maximum tolerate dose [2, 12] was 500 mg/kg.

With `CON=C1CN(c2nc3c(cc2F)c(=O)c(C(=O)O)cn3C2CC2)CC12CNC2.Cl` [Hydrochloride] the “AUC 0-5 hr” value [3] was 6.070 ± 0.731, the AUC inf [3] was 6.283 ± 0.804 µg·h/mL and the C last [3] was 0.137 ± 0.042 µg/mL. For the same compound, the Half-life [3] was 1.061 ± 0.093 h, the T last [3] was 5.0 ± 0.0 h and the C last ([4]; iv, 10 mg/kg) was 0.067 µg/mL. The Half-life ([4]; iv, 10 mg/kg) was 1.259 h, the T last ([4]; iv, 10 mg/kg) was 4.0 h and the Half-life ([4]; po, 100 mg/kg) was 2.205 h. For the same compound, the Fibrous peritonitis [5] was “severe fibrous peritonitis”, the Approximate lethal dose [2, 11] was 250 to 500 mg/kg and the Maximum tolerate dose [2, 11] was 250 mg/kg. The Median lethal dose [2, 11] was 481.93 mg/kg.

With `[Mg]` [Magnesium] the Solubility [6] was 0.02 mg/mL.

For `CON=C1CN(c2nc3c(cc2F)c(=O)c(C(=O)O)cn3C2CC2)CC12CNC2` [Methanesulfonate], the Approximate lethal dose [2, 11] was 500 to 1000 mg/kg, the Median lethal dose [2, 11] was 716.24 mg/kg and the Maximum tolerate dose [2, 12] was 500 mg/kg.

For `CON=C1CN(c2nc3c(cc2F)c(=O)c(C(=O)O)cn3C2CC2)CC12CNC2` [Parent Compound], the Aqueous solubility [7] is listed as “low”, the Solubility ([8]; aqueous solution with a pH of 1.2, simulated gastric fluid, pH 1.2, room temperature) is listed as 7700 µg/mL and the Solubility ([8]; aqueous solution with a pH of 6.8, aqueous buffer, pH 6.8, room temperature) is listed as 38 µg/mL. For the same compound, the Solubility ([8]; solvent of pH 4.0, aqueous buffer, pH 4.0, room temperature) was 6490 µg/mL and the Antimicrobial activity [9] was “excellent antimicrobial activity”.

Compound `CON=C1CN(c2nc3c(cc2F)c(=O)c(C(=O)O)cn3C2CC2)CC12CNC2` [Phosphate] has an Approximate lethal dose [2, 11] of 250 to 500 mg/kg, a Median lethal dose [2, 11] of 356.91 mg/kg and a Maximum tolerate dose [2, 12] of 250 mg/kg.

In the case of `O=C(O)c1ccccc1O` [Salicylate], the Solubility [6] is reported as 0.11 mg/mL.

For Fumarate, the Solubility [6] was 0.63 mg/mL.

Work on Maleate yielded a Solubility [6] of 0.18 mg/mL.

With Mandelate the Solubility [6] was 1.01 mg/mL.
